According to patent publication US12697349B2, “Compositions and methods for treating RAS-mutant cancers” (MEMORIAL SLOAN KETTERING CANCER CENTER, priority 2019, dated 2026):

Columns and labels:
[1] = test system: MIAPaCa-2 (KRAS^G12C) and PSN1 (KRAS^G12R) pancreatic cancer cell lines; test: Drug combination growth inhibition and synergy analysis (CompuSyn, Combination Index); assay type: cell-based, human; conditions: KRAS-mutant pancreatic cancer cells MIAPaCa-2 and PSN1
Excerpt: Data presented as mean of three independent experiments (n=3). […] Each CI score represents data from at least three independent experiments.
CompuSyn software (Version 1.0) (http://www.combosyn.com), which is based on the Median-Effect Principle and the Combination Index-Isobologram Theorem was used to analyze drug synergism. Combination index (CI) values CI>1 indicates antagonism; CI=0.75-1.25 indicates additive effects; and <1 indicates synergism. Each GI (Growth inhibition) or CI score represents data from at least three independent experiments.

MIAPaCa-2 (KRAS mutant) = test: In vivo drug treatment, human xenograft model (KRAS mutant); set-up: species or system mice; conditions: auranofin 10 mg/kg intraperitoneal, 2 weeks, versus vehicle
Method: MIAPaCa-2 (KRAS mutant) or Colo357 (KRAS wild-type) organoids were transplanted into the pancreases of recipient mice. The mice were treated with vehicle only or auranofin (n=5) for 2 weeks. Tumor weights were measured and plotted.
(§1) In vivo drug treatment experiments. For auranofin treatment trials, 16 mg auranofin was first solved in 4 mL ethanol, and then diluted with 12 mL PBS to a final concentration of 1 mg/ml. Mice were given daily auranofin (10 mg/kg) or a similar volume of vehicle by intraperitoneal injection. The sick animals were sacrificed and pancreatic tissues and tumors were used for further analysis.
(§2) Growth inhibitory effects of pharmacological TXNRD1 inhibition was also examined in additional murine PDAC models generated by transplanting KRas^G12D; p53^−/− pancreatic cancer organoid lines into the pancreas of recipient mice. Mice were treated either with vehicle only, acting as a negative control, or auranofin. […] Thus, TXNRD1 is required for the maintenance of KRAS-mutant tumors and dependency in vivo.

[2] = test system: human pancreatic cancer cell lines (KRAS mutant and wild-type KRAS); test: In vitro growth inhibition by auranofin or piperlongumine in a panel of pancreatic cancer cell lines; assay type: cell-based
Method: Relative proliferation was calculated by measuring viable cell numbers, and normalizing to the viable cell numbers of DMSO-treated cells, which were set to 1. Relative proliferation was then plotted as a function of auranofin concentration and fit to an exponential curve. L3.3, Colo357, and BXPC3 have wild-type KRAS, and rest of the cell lines harbor a KRAS mutation.
Cancer cells harboring different KRAS mutations (G12C, G12D, G12V) or wild-type allele were assayed. Relative proliferation was calculated by measuring viable cell numbers, and normalizing to the viable cell numbers of DMSO-treated cells, which were set to 1. Relative proliferation was then plotted as a function of auranofin concentration and fit to an exponential curve.
(§3) Proliferation assays. Competitive proliferation assays using shRNAs in TRMPV-Neo vector (with miR-30 or miR-E backbone) were performed as described previously (Huang et al., Genes Dev. 28(16): 1800-1814 (2014)). Assays for in vitro growth inhibition by auranofin or piperlongumine were performed by counting the viable cell numbers using CellTiter-Glo Luminescent Cell Viability Assay (Promega) after incubation of cells in the presence of increasing concentrations of auranofin or piperlongumine for 72 hr. Proliferation rates were calculated by dividing viable cell numbers at 72 hr by the viable cell numbers at 0 hr. Relative proliferation rates were calculated by normalizing to the proliferation rate of vehicle-treated cells.
Since the screening system discussed above and FIGS. 1A-3B was driven by mutant Kras, p53 loss and Myc overexpression, whether alterations in either gene could dictate sensitivity to TXNRD1 inhibition was investigated. Twelve pancreatic cancer cell lines were treated with increasing concentration of auranofin or DMSO. Among the cell lines used in this experiment L3.3, Colo357, and BXPC3 have wild-type KRAS. The cell lines PANC0327, MIAPaCa-2, PANC0213, ASPC1, 8898, CFPAC-1, L3.6pl, PANC1 and SU8686 harbored KRAS mutations.
To understand whether the observed difference between sensitivities of wild-type KRAS cells and KRAS mutant cells, was statistically significant, the IC50 data of the relative sensitivity of human PDAC cell lines to TXNRD1 inhibition by auranofin was compared. […] To understand the effect of KRAS mutations (G12C, G12D, G12V) on auranofin sensitivity, human pancreatic cancer cells harboring different KRAS mutations (G12C, G12D, G12V) or wild-type were treated with another TXNRD1 inhibitor piperlongumine.

mPDAC cells = test: In vitro growth inhibition by auranofin, CellTiter-Glo viable cell numbers; assay type: cell-based, murine; conditions: 72 hr, increasing doses, normalized to DMSO-treated cells
Method: Relative proliferation was calculated by measuring viable cell numbers, and normalizing to the viable cell numbers of DMSO-treated cells, which were set to 1. Relative proliferation was then plotted as a function of auranofin concentration and fit to an exponential curve.
as §3
Auranofin is an inhibitor of enzymatic activity of TXNRD1 (See Gromer et al., J Biol Chem 273(32): 20096-20101). Myricetin, manumycin A and protoporphyrin IX are also inhibitors of enzymatic activity of TXNRD1. mPDAC cells were treated with the TXNRD1 inhibitor auranofin or DMSO for 72 hr, and viability was measured. DMSO treatment served as a negative control causing a lack of growth inhibition. […]

[3] = test system: KRas^G12D; p53^-/- pancreatic cancer organoid tumors; test: In vivo drug treatment, KRas^G12D; p53^-/- pancreatic cancer organoids transplanted into the pancreas; set-up: species or system mice; conditions: 10 mg/kg, one per day, 5 days per week, intraperitoneal, 1 week, versus vehicle
Method: KRas^G12D; p53^−/− organoids were transplanted in recipient mice, and the mice were treated with vehicle only or auranofin (n=3-4) for 1 week. Tumor weights were measured and plotted.
as §1, §2

| SMILES | antiproliferative effect [1] | tumor growth inhibition (tumor weights) (MIAPaCa-2 (KRAS mutant)) | correlation of anti-proliferative response (IC50) with KRAS mutational status ([2]; human PDAC cell lines, n=12) | correlation of response (IC50) with p53 mutational status or MYC mRNA expression ([2]; human pancreatic cancer cell lines, n=9) | sensitivity to auranofin, KRAS mutant versus wild-type KRAS cells ([2]; twelve pancreatic cancer cell lines, 72 hours, increasing concentration) | growth inhibition of mPDAC cells (relative proliferation) (mPDAC cells) | tumor growth (tumor weights) [3] | sensitivity to piperlongumine, KRAS mutant versus wild-type KRAS cells ([2]; cells with KRAS G12C, G12D, G12V or wild-type, 72 hours) |
| --- | --- | --- | --- | --- | --- | --- | --- | --- |
| CC(=O)OC[C@H]1O[C@@H]([S-])[C@H](OC(C)=O)[C@@H](OC(C)=O)[C@@H]1OC(C)=O.CCP(CC)CC.[Au+] [auranofin] | antiproliferative effects | growth inhibitory effects of pharmacological TXNRD1 inhibition was found | significant correlation | no significant correlation | KRAS mutant cells were generally more sensitive to auranofin than the wild-type KRAS cells | inhibited growth of mPDAC cells at submicromolar concentration | triggered a delay in Kras-mutant tumor growth | – |
| COc1cc(/C=C/C(=O)N2CCC=CC2=O)cc(OC)c1OC [piperlongumine] | – | – | – | – | – | – | – | KRAS mutant cells were more sensitive to piperlongumine than the wild-type KRAS cells |
